The record followed here is patent US20170189504A1, “NOVEL PEPTIDES AND COMBINATION OF PEPTIDES FOR USE IN IMMUNOTHERAPY AGAINST VARIOUS CANCERS” (immatics biotechnologies GmbH, priority 2015, published 2017).

In one assay the test system is CD8+ T cells. Kind of assay: In vitro immunogenicity: T-cell priming with aAPCs loaded with peptide/MHC complexes and anti-CD28 antibody, pMHC multimer readout (Tables 19A, 19B). It is filed as cell-based, human. Conditions: for Wells positive [%]: in vitro immunogenicity of HLA class I peptides, pMHC multimer readout after priming of CD8+ T cells; for Share of positive wells (percent class): in vitro immunogenicity, healthy donors, three stimulation cycles. As to the method: In an aspect, the peptides are pre-screened for immunogenicity before being included in the warehouse. By way of example, and not limitation, the immunogenicity of the peptides included in the warehouse is determined by a method comprising in vitro T-cell priming through repeated stimulations of CD8+ T cells from healthy donors with artificial antigen presenting cells loaded with peptide/MHC complexes and anti-CD28 antibody.
In order to obtain information regarding the immunogenicity of the TUMAPs of the present invention, the inventors performed investigations using an in vitro T-cell priming assay based on repeated stimulations of CD8+ T cells with artificial antigen presenting cells (aAPCs) loaded with peptide/MHC complexes and anti-CD28 antibody.
In order to perform in vitro stimulations by artificial antigen presenting cells loaded with peptide-MHC complex (pMHC) and anti-CD28 antibody, the inventors first isolated CD8+ T cells from fresh HLA-A*02 leukapheresis products via positive selection using CD8 microbeads (Miltenyi Biotec, Bergisch-Gladbach, Germany) of healthy donors obtained from the University clinics Mannheim, Germany, after informed consent.
PBMCs and isolated CD8+ lymphocytes were incubated in T-cell medium (TCM) until use consisting of RPMI-Glutamax (Invitrogen, Karlsruhe, Germany) supplemented with 10% heat inactivated human AB serum (PAN-Biotech, Aidenbach, Germany), 100 U/ml Penicillin/100 μg/ml Streptomycin (Cambrex, Cologne, Germany), 1 mM sodium pyruvate (CC Pro, Oberdorla, Germany), 20 μg/ml Gentamycin (Cambrex). 2.5 ng/ml IL7 (PromoCell, Heidelberg, Germany) and 10 U/ml IL-2 (Novartis Pharma, Nurnberg, Germany) were also added to the TCM at this step.
Generation of pMHC/anti-CD28 coated beads, T-cell stimulations and readout was performed in a highly defined in vitro system using four different pMHC molecules per stimulation condition and 8 different pMHC molecules per readout condition.
The purified co-stimulatory mouse IgG2a anti human CD28 Ab 9.3 (Jung et al., 1987) was chemically biotinylated using Sulfo-N-hydroxysuccinimidobiotin as recommended by the manufacturer (Perbio, Bonn, Germany). Beads used were 5.6 μm diameter streptavidin coated polystyrene particles (Bangs Laboratories, Illinois, USA).
pMHC used for positive and negative control stimulations were A*0201/MLA-001 (peptide […] (SEQ ID NO. 303) from modified Melan-A/MART-1) and A*0201/DDX5-001 ([…] from DDX5, SEQ ID NO. 304), respectively.
800.000 beads/200 μl were coated in 96-well plates in the presence of 4×12.5 ng different biotin-pMHC, washed and 600 ng biotin anti-CD28 were added subsequently in a volume of 200 μl. Stimulations were initiated in 96-well plates by co-incubating […] CD8+ T cells with 2×10^5 washed coated beads in 200 μl TCM supplemented with 5 ng/ml IL-12 (PromoCell) for 3 days at 37° C. Half of the medium was then exchanged by fresh TCM supplemented with 80 U/ml IL-2 and incubating was continued for 4 days at 37° C. This stimulation cycle was performed for a total of three times. For the pMHC multimer readout using 8 different pMHC molecules per condition, a two-dimensional combinatorial coding approach was used as previously described (Andersen et al., 2012) with minor modifications encompassing coupling to 5 different fluorochromes. Finally, multimeric analyses were performed by staining the cells with Live/dead near IR dye (Invitrogen, Karlsruhe, Germany), CD8-FITC antibody clone SK1 (BD, Heidelberg, Germany) and fluorescent pMHC multimers. For analysis, a BD LSRII SORP cytometer equipped with appropriate lasers and filters was used. Peptide specific cells were calculated as percentage of total CD8+ cells. Evaluation of multimeric analysis was done using the FlowJo software (Tree Star, Oreg., USA). In vitro priming of specific multimer+ CD8+ lymphocytes was detected by comparing to negative control stimulations.

The subject of the next assay is HLA-A*02. Kind of assay: MHC binding assay, UV-ligand exchange with β2m ELISA, HLA-A*02 (Table 20). More on the design: species or system human. The settings on record: binding to HLA-A*02 ranged by peptide exchange yield (UV-ligand exchange, β2m ELISA). In outline:
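Peptide–MHC complexes made by UV-ligand exchange of a UV-cleavable peptide, diluted 100-fold and captured on streptavidin plates. Stabilized complexes detected by HRP anti-β2m ELISA (1 h, 37° C, A450). Exchange yield derived against refolded HLA-A*02:01/MLA-001 monomer standards (15-500 ng/ml).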
A general note: In an ELISA, binding on a coated surface is turned into a signal by an enzyme label.

A further assay relates to HLA-A*24. Kind of assay: MHC binding assay, UV-ligand exchange with β2m ELISA, HLA-A*24 (Table 21). Also noted: species or system human. The settings on record: binding to HLA-A*24 ranged by peptide exchange yield (UV-ligand exchange, β2m ELISA). The source says: Candidate peptides for T cell based therapies according to the present invention were further tested for their MHC binding capacity (affinity). The individual peptide-MHC complexes were produced by UV-ligand exchange, where a UV-sensitive peptide is cleaved upon UV-irradiation, and exchanged with the peptide of interest as analyzed. Only peptide candidates that can effectively bind and stabilize the peptide-receptive MHC molecules prevent dissociation of the MHC complexes. To determine the yield of the exchange reaction, an ELISA was performed based on the detection of the light chain ((β2m) of stabilized MHC complexes. The assay was performed as generally described in Rodenko et al. (Rodenko et al., 2006).
96 well MAXISorp plates (NUNC) were coated over night with 2 ug/ml streptavidin in PBS at room temperature, washed 4× and blocked for 1 h at 37° C. in 2% BSA containing blocking buffer. Refolded HLA-A*02:01/MLA-001 monomers served as standards, covering the range of 15-500 ng/ml. Peptide-MHC monomers of the UV-exchange reaction were diluted 100 fold in blocking buffer. Samples were incubated for 1 h at 37° C., washed four times, incubated with 2 ug/ml HRP conjugated anti-β2m for 1 h at 37° C., washed again and detected with TMB solution that is stopped with […]. Absorption was measured at 450 nm. Candidate peptides that show a high exchange yield (preferably higher than 50%, most preferred higher than 75%) are generally preferred for a generation and production of antibodies or fragments thereof, and/or T cell receptors or fragments thereof, as they show sufficient avidity to the MHC molecules and prevent dissociation of the MHC complexes.

For the substance “31 (TITETTVEV; listed as Homo sapiens) [compound 31]”, the “Wells positive [%]” value in the assay with CD8+ T cells was “+ (<20% = +)”. For the same substance, in the assay with HLA-A*02, the Peptide exchange entry was “+++ (50%-75% = +++)”.
On to “14 (ILAKDLFEI; listed as Homo sapiens) [compound 14]”, for which the “Wells positive [%]” value with CD8+ T cells is given as “++ (20%-49% = ++)”. For the same substance, the Peptide exchange result in the assay on HLA-A*02 is given as “++++ (≧75% = ++++)”.
On the same counts, the results for “249 (GLCERLVSL; listed as Homo sapiens) [compound 249]” are “+ (<20% = +)” and “++++ (≧75% = ++++)”.
On the same counts, the results for “149 (ILNTHITEL; listed as Homo sapiens) [compound 149]” are “+ (<20% = +)” and “+++ (50%-75% = +++)”.
Taken in the same sequence, the figures for “251 (ALSVLRLAL; listed as Homo sapiens) [compound 251]” were “++ (20%-49% = ++)” and “+++ (50%-75% = +++)”.
On to “247 (ALYEGYATV; listed as Homo sapiens) [compound 247]”, for which the “Wells positive [%]” value in the assay with CD8+ T cells is recorded as “++ (20%-49% = ++)”. Also, the Peptide exchange result in the assay with HLA-A*02 is on record as “+++ (50%-75% = +++)”.
On to “291 (KLDETGNSL; listed as Homo sapiens) [compound 291]”, for which the “Share of positive wells (percent class)” value in the assay on CD8+ T cells was “+ (<20% = +)”.
“1 (LLYPEPWSV; listed as Homo sapiens) [compound 1]”: the “Wells positive [%]” value with CD8+ T cells is given as “++ (20%-49% = ++)”. In the assay with HLA-A*02, the Peptide exchange entry is given as “++++ (≧75% = ++++)”.
Turning to “6 (ALFDSLRHV; listed as Homo sapiens) [compound 6]”, in the assay with CD8+ T cells, the “Wells positive [%]” value was “++ (20%-49% = ++)”. Moreover, the Peptide exchange result in the assay on HLA-A*02 is “+++ (50%-75% = +++)”.
As for “26 (ALQEELTEL; listed as Homo sapiens) [compound 26]”, the “Wells positive [%]” value with CD8+ T cells is listed as “+ (<20% = +)”. Also, the Peptide exchange result with HLA-A*02 is “+++ (50%-75% = +++)”.
On the same counts, the results for “29 (YLLDPSITL; listed as Homo sapiens) [compound 29]” are “+ (<20% = +)” and “+++ (50%-75% = +++)”.
Taken in the same sequence, the figures for “150 (VLYDRPLKI; listed as Homo sapiens) [compound 150]” were “++ (20%-49% = ++)” and “+++ (50%-75% = +++)”.
For “292 (GMMTAILGV; listed as Homo sapiens) [compound 292]”, the “Share of positive wells (percent class)” value with CD8+ T cells is “+ (<20% = +)”.
The same measure, in the same setting: then “301 (AYKPGALTF; listed as Homo sapiens) [compound 301]”, with “+ (<20% = +)”; and “300 (AYVLRLETL; listed as Homo sapiens) [compound 300]”, with “+ (<20% = +)”.
Same read-out and setting: then “296 (TYVDSSHTI; listed as Homo sapiens) [compound 296]”, with “+ (<20% = +)”.
Same read-out and setting: then “297 (PFLQASPHF; listed as Homo sapiens) [compound 297]”, with “++ (20%-49% = ++)”.
As for “293 (FLVDGSWSI; listed as Homo sapiens) [compound 293]”, the “Share of positive wells (percent class)” value in the assay with CD8+ T cells was “+ (<20% = +)”.
Consider “290 (KIVDFSYSV; listed as Homo sapiens) [compound 290]”, for which the “Share of positive wells (percent class)” value in the assay on CD8+ T cells was “++ (20%-49% = ++)”.
Same read-out and setting: then “298 (RYLEGTSCI; listed as Homo sapiens) [compound 298]”, with “+ (<20% = +)”.
In the case of “217 (FFPPTRQMGLLF; listed as Homo sapiens) [compound 217]”, in the assay on HLA-A*24, the Peptide exchange result was “++++ (≧75% = ++++)”.
The same measure, in the same setting: the entry for “183 (VFTSTARAF; listed as Homo sapiens) [compound 183]” is “+++ (50%-75% = +++)”; for “273 (TYIKPISKL; listed as Homo sapiens) [compound 273]” it is “+++ (50%-75% = +++)”.
Same read-out and setting: the entry for “284 (RYLNKAFHI; listed as Homo sapiens) [compound 284]” is “+++ (50%-75% = +++)”.
Still for that read-out and setting: then “194 (EFGSLHLEFL; listed as Homo sapiens) [compound 194]”, with “+ (<20% = +)”.
With “270 (NYYEVHKELF; listed as Homo sapiens) [compound 270]”, the Peptide exchange entry with HLA-A*24 is “+++ (50%-75% = +++)”.
Turning to “205 (VHIPEVYLI; listed as Homo sapiens) [compound 205]”, the Peptide exchange result in the assay on HLA-A*24 is reported as “+++ (50%-75% = +++)”.
In the case of “295 (YYPGVILGF; listed as Homo sapiens) [compound 295]”, the “Share of positive wells (percent class)” value with CD8+ T cells is on record as “++ (20%-49% = ++)”.
Regarding “289 (KYPVEWAKF; listed as Homo sapiens) [compound 289]”, the Peptide exchange result in the assay with HLA-A*24 is given as “++++ (≧75% = ++++)”.
The same measure, in the same setting: the entry for “201 (IYATEAHVF; listed as Homo sapiens) [compound 201]” is “+++ (50%-75% = +++)”.
Still for that read-out and setting: the entry for “175 (YYEVHKELF; listed as Homo sapiens) [compound 175]” is “++++ (≧75% = ++++)”; for “216 (QYSSVFKSL; listed as Homo sapiens) [compound 216]” it is “++++ (≧75% = ++++)”; for “206 (EYQENFLSF; listed as Homo sapiens) [compound 206]” it is “+++ (50%-75% = +++)”.
As for “174 (VYVGGGQIIHL; listed as Homo sapiens) [compound 174]”, the Peptide exchange entry in the assay with HLA-A*24 was “+++ (50%-75% = +++)”.
The same measure, in the same setting: the entry for “202 (VYWDSAGAAHF; listed as Homo sapiens) [compound 202]” is “++++ (≧75% = ++++)”; for “274 (AYLHSHALI; listed as Homo sapiens) [compound 274]” it is “++++ (≧75% = ++++)”.
As for “211 (YYLEVGKTLI; listed as Homo sapiens) [compound 211]”, the Peptide exchange entry in the assay with HLA-A*24 was “++++ (≧75% = ++++)”.
“171 (LFIPSSKLLFL; listed as Homo sapiens) [compound 171]”: in the assay on HLA-A*24, the Peptide exchange entry is on record as “+++ (50%-75% = +++)”.
Same read-out and setting: then “181 (LYLDIINLF; listed as Homo sapiens) [compound 181]”, with “++++ (≧75% = ++++)”.
